Data from PubChem BioAssay AID588620 (NMMLSC, 2011).
Active and inactive are the calls of the source.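 The calls were made as follows: active = fitted half-maximal concentration below 30 µM for cell fluorescence in pump-free yeast, so likely self-fluorescent; inactive = the rest.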

Experiment: concentration-dependent intrinsic compound fluorescence, S. cerevisiae AD/pABC3, flow cytometry, Cherry Pick1 hits, artefact control for antifungal efflux pump inhibitor project, dose response (AID 588620);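 also: red emission of unstained cells excited at 488 nm measured in PE-Texas Red channel; cell median fluorescence as percent of DMSO wells so 100% equals vehicle baseline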
Conditions: S. cerevisiae AD/pABC3 compound autofluorescence, flow cytometry; at 33.1 µM (top of the series)

SMILES | fluorescence response, % of control
C[C@H](CO)N1C[C@H](C)[C@@H](CN(C)S(=O)(=O)c2cccs2)Oc2c(NC(=O)Nc3ccc4c(c3)OCO4)cccc2C1=O | 96.9% (inactive)
O=C(O)c1ccc(-c2ccc(/C=c3/sc4nc5ccccc5n4c3=O)o2)cc1Cl | 365% (inactive)
COc1cccc(-c2sc3cc(OC)c(OC)cc3c2-c2ccc(OCCN3CCCCC3)cc2)c1 | 112% (inactive)
COc1ccc(-c2ccc3c(c2)S(=O)(=O)c2cccc(C(=O)NC4CCCCC4)c2C3=O)cc1OC | 106% (inactive)
CCOC(=O)c1ccc(S(=O)(=O)NNS(=O)(=O)c2ccc(C)cc2)cc1 | 112% (inactive)
CCn1ncc(Br)c1C(=O)Nc1sc2c(c1C(=O)OC)CCC2 | 117% (inactive)
COc1ccc(C2c3ccc4ccccc4c3Oc3ncn(CCN4CCOCC4)c(=N)c32)cc1 (stereo not given) | 135% (inactive)
Cc1ccc(Cl)cc1N1CCN(c2cccc[n+]2C)CC1 | 95.1% (inactive)
O=C(CSc1nnc(-c2cccnc2)n1Cc1ccco1)c1ccc(Cl)c(Cl)c1 | 81.2% (inactive)
O=C(O)Cc1ccc(NC(=O)c2ccc(NC(=O)c3ccco3)cc2)cc1 | 109% (inactive)
CCCCCCCCCCOC(=O)Cn1c(COc2ccc(Cl)cc2)[n+](C)c2ccccc21 | 106% (inactive)
O=C(C[n+]1cc(-c2ccc(Cl)c(Cl)c2)n2c1CCC2)N1c2ccccc2Sc2ccccc21 | 92.7% (inactive)
COc1ccc(OC)c(-c2nc(C(N)=O)c3[nH]c(=O)n(-c4ccc(F)cc4)c3n2)c1 | 104% (inactive)
O=C(c1cc(COc2cccc(C(F)(F)F)c2)on1)N1CCC(c2ccncc2)CC1 | 109% (inactive)
COc1ccc(Cn2c(-c3ccccc3)nc3c(c(=O)c4ccccc4n3C)c2=O)cc1 | 102% (inactive)
COc1ccc2sc(-c3ccccc3OC)c(-c3ccc(OCCN4CCCC4)cc3)c2c1 | 114% (inactive)
Cc1ccc(CCNC(=O)CCCn2nc(C)c3c(C)n(-c4ccc(C)cc4)nc3c2=O)cc1 | 101% (inactive)
O=C(CSc1nc2nc3c(cc2c(=O)n1-c1ccccc1)CCCC3)Nc1cccc2ccccc12 | 101% (inactive)
COC(=O)c1ccc(CN2CCC(Oc3cccc(C(=O)N4CCCC4)c3)CC2)cc1 | 95.7% (inactive)
CC1(C)Cc2c(sc(NC(=O)COc3ccc(Cl)cc3Cl)c2C(N)=O)C(C)(C)N1 | 86% (inactive)
COc1ccccc1-c1sc2cc3c(cc2c1-c1ccc(OCCN2CCOCC2)cc1)OCO3 | 87.6% (inactive)
Cc1cccc(NC(=O)c2nc[nH]c2C(=O)N[C@H](C)c2ccccc2)c1 | 92.4% (inactive)
Cc1cnc(C(=O)NC2CC(C)(C)Cc3c2cnn3-c2ccccc2)cn1 (stereo not given) | 98.5% (inactive)
CCCCCCCCCCOC(=O)Cn1c(COc2cccc(C)c2)[n+](C)c2ccccc21 | 105% (inactive)
COc1ccc(NC(=O)Nc2cccc3c2O[C@H](CN(C)C(=O)NC2CCCCC2)[C@@H](C)CN([C@H](C)CO)C3=O)cc1 | 80.3% (inactive)
CS(=O)(=O)Nc1ccc(C(=O)Nc2ccc3c(c2)OCCO3)cc1 | 95.7% (inactive)
Nc1ncc2c(n1)-c1cc(Cl)ccc1SC2 | 102% (inactive)

SMILES | fluorescence response, % of control
COc1ccc(N2C(=O)CC(N3CCN(c4ccc(C(=O)c5cccnc5)cc4)CC3)C2=O)cc1 (stereo not given) | 88.6% (inactive)
COCCOC(=O)c1c(C)oc2ccc(NS(=O)(=O)c3ccc(F)cc3)cc12 | 90.9% (inactive)
NC(=O)c1nc(-c2ccco2)nc2c1[nH]c(=O)n2-c1ccc(Cl)c(Cl)c1 | 112% (inactive)
COc1ccc(-n2ncc3c2CC(C)(C)CC3NC(=O)c2cn[nH]c2)cc1 (stereo not given) | 110% (inactive)
COCCn1c(=S)[nH]c2sc3c(c2c1=O)CCCC3 | 91.7% (inactive)
O=C(NCC1CCCO1)c1ccc(Br)c(S(=O)(=O)N2CCOCC2)c1 (stereo not given) | 96.3% (inactive)
O=C1/C(=C\c2ccc(-c3ccccc3Cl)o2)SC(=S)N1CC1CCCO1 (stereo not given) | 150% (inactive)
COc1cc2c(=O)n(Cc3ccco3)c(=O)n(CC(=O)c3cccc(Br)c3)c2cc1OC | 86.2% (inactive)
c1cc2c(cc1C1CCCCC1)c1c3n2CCCNC3CCC1 (stereo not given) | 132% (inactive)
COc1ccc2sc(-c3ccccc3OC)c(-c3ccc(OCCN4CCOCC4)cc3)c2c1 | 81.8% (inactive)
Cc1ccc(CNC(=O)CCCn2nc(C)c3c(C)n(-c4ccccc4)nc3c2=O)cc1 | 93.6% (inactive)
CCC1Nc2ncnc(N3CCN(c4ccccc4)CC3)c2N(Cc2ccccc2)C1=O (stereo not given) | 103% (inactive)
CC(C)(C)c1cc(C(c2cccnc2)N2CCN(CCO)CC2)cc(C(C)(C)C)c1O (stereo not given) | 78.8% (inactive)
O=c1[nH]c(C2CCN(S(=O)(=O)c3ccccc3C(F)(F)F)CC2)nc2c1nnn2Cc1cccc(F)c1 | 83.7% (inactive)
CSc1ccccc1NC(=O)c1cc(-c2ccc3c(c2)OCO3)on1 | 101% (inactive)
O=C(c1ccc2c(c1)OCO2)N1CCC2(CC1)Oc1ccc(Cl)cc1C(=O)C21CC(c2ccccc2)=NO1 (stereo not given) | 90.9% (inactive)
COc1ccc(-c2sc3cc4c(cc3c2-c2ccc(OCCN3CCCCC3)cc2)OCO4)cc1 | 91.7% (inactive)
c1ccc2c(c1)Cc1cc(CN3CCOCC3)ccc1-2 | 109% (inactive)
O=C1/C(=C/c2ccc(O)c(O)c2)Oc2cc(O)ccc21 | 426% (inactive)
CC(C)c1ccc(C(=O)NC(=S)Nc2ccc3[nH]c(=O)[nH]c3c2)cc1 | 158% (inactive)
CCOc1cc2[nH]c(=S)n(CCC(=O)NCc3ccc(OC)cc3)c(=O)c2cc1OCC | 93.1% (inactive)
CCCCc1nnc(NC(=O)COc2ccc3c(C)cc(=O)oc3c2)s1 | 134% (inactive)
Cc1ccc(-n2c(=O)[nH]c3c(C(N)=O)nc(-c4ccc(C)o4)nc32)cc1 | 99.1% (inactive)
O=C(Cn1c(COc2ccccc2)nc2ccccc21)Nc1cc(Cl)c(Cl)cc1Cl | 87.6% (inactive)
Cc1cc(C(=O)NC2CC(C)(C)Cc3c2cnn3-c2cccc(F)c2)n(C)n1 (stereo not given) | 82.7% (inactive)
Cc1ccc(Cn2nnc3c(=O)[nH]c(C4CCN(S(=O)(=O)c5ccc(C)cc5)CC4)nc32)cc1 | 91.7% (inactive)
Cc1cc(Cl)c(OCCCn2ccnc2)c(Br)c1 | 83.7% (inactive)

SMILES | fluorescence response, % of control
CC(C)OC(=O)c1ccc(COC(=O)c2cccc(-c3nnc(-c4ccccc4)o3)c2)cc1 | 118% (inactive)
COc1ccc(Cn2nnc3c(=O)[nH]c(C4CCN(S(=O)(=O)c5ccc(C)cc5)CC4)nc32)cc1 | 95.7% (inactive)
Cc1ccc(Cn2nnc3c(=O)[nH]c(C4CCN(S(=O)(=O)c5ccc(F)cc5)CC4)nc32)cc1 | 116% (inactive)
COc1ccc2c(-c3ccc(OCCN4CCOCC4)cc3)c(-c3ccccc3OC)sc2c1 | 102% (inactive)
CCC(=O)N1CCC2(CC1)Oc1ccc(Cl)cc1C(=O)C21CC(c2ccc(Cl)cc2)=NO1 (stereo not given) | 89.8% (inactive)
CCOc1ccc(OCC)c(NS(=O)(=O)c2ccc3c(c2)CCN3C(=O)C2CCC2)c1 | 80.8% (inactive)
NC(=S)NNC(=O)[C@@H]1CCCC[C@@H]1C(=O)O | 117% (inactive)
O=C(Nc1ccccc1C(=O)O)c1ccc(NC(=O)c2ccc(Br)o2)cc1 | 107% (inactive)
C[C@@]12C(=O)Nc3ccc(F)cc3C(=O)N1[C@H]1c3cc(Cl)ccc3OC[C@@H]1[C@@H]2c1ccccc1 | 104% (inactive)
O=C(c1ccc2c(c1)OCO2)N1CCC2(CC1)Oc1ccc(F)cc1C(=O)C21CC(c2ccccc2)=NO1 (stereo not given) | 139% (inactive)
CCOc1ccccc1-c1nc(C(N)=O)c2[nH]c(=O)n(-c3ccccc3)c2n1 | 90.8% (inactive)
Cc1ccc(CC2CC(=O)N(Cc3ccco3)C2=O)cc1 (stereo not given) | 93.5% (inactive)
Cc1ccc(O)c(C(=O)c2cnc3c(c2)CN(CCC(C)C)C(=O)N3)c1 | 102% (inactive)
Cc1ccc(CNC(=O)C(=O)NCC2OCCN2S(=O)(=O)c2ccc(Br)cc2)cc1 (stereo not given) | 88.1% (inactive)
CCC(=O)N1CCN(c2ccc(Cl)cc2NC(=O)c2ccc3c(c2)OCCO3)CC1 | 99.8% (inactive)
CCOc1cccc(-c2nc(C(N)=O)c3[nH]c(=O)n(-c4cccc(Cl)c4)c3n2)c1O | 102% (inactive)
CC(=O)Nc1ccc(NC(=O)Cc2ccc(F)cc2)cc1 | 106% (inactive)
COc1ccc(S(=O)(=O)N2CCCCC2)cc1NC(=O)c1ccc(CS(C)(=O)=O)cc1 | 99.1% (inactive)
O=c1[nH]c(=S)[nH]c(O)c1/C=C1/C=c2ccccc2=N1 | 114% (inactive)
O=C(CSc1nnc(Cc2cccs2)n1Cc1ccco1)Nc1ccc(Br)cc1 | 86% (inactive)
O=C(O)c1nccnc1C(=O)N1CCN(c2ccccc2)CC1 | 121% (inactive)
COc1ccc(C2=NCC(=O)N(CC(=O)NCc3ccco3)c3sc4c(c32)CCCC4)cc1 | 95.7% (inactive)
O=C(Nc1ccnc(-c2cccnc2)n1)c1cccc(Cl)c1Cl | 104% (inactive)
CCOc1ccc(S(=O)(=O)N(C(=O)c2ccco2)c2cc3sc(=O)oc3c3ccccc23)cc1 | 92.2% (inactive)
NC1=NC[C@H](Cc2ccc(O)cc2)N1CCc1cc(C(F)(F)F)cc(C(F)(F)F)c1 | 83.1% (inactive)
Cc1nnc(N/N=C/c2cc([N+](=O)[O-])c(N3CCC(C)CC3)cc2N2CCC(C)CC2)n1N | 97.1% (inactive)
